Experimental data reported in patent US9670514B2, “Method for producing polysaccharide” (SANYO CHEMICAL INDUSTRIES, LTD., priority 2011, dated 2017).

Test system: arginine kinase
Test: Michaelis constant Km of uridine triphosphate synthesis using arginine kinase
Format: biochemical, Toxoplasma gondii
Conditions: uridine diphosphate as substrate, ω-phosphono-L-arginine as phosphate donor
Protocol: Arginine kinase aqueous solution (D4-1-3) was obtained in a similar manner as in Preparation 1, except that a “gene encoding the amino acid sequence of SEQ ID NO: 9 derived from Toxoplasma gondii” was used in place of the “gene encoding the amino acid sequence of SEQ ID NO: 1 derived from Streptococcus equisimilis”.
The tube was allowed to stand at 30° C. for 3 minutes in a constant temperature water bath. To the tube was added 100 μL of temperature-adjusted (30° C.) substrate solution [2-1] (a solution obtained by dissolving sodium uridine diphosphate to a concentration of 10 mM in buffer solution B). Thereby, enzyme reaction solution (IV-2-1) was obtained. A portion (100 μL) of (IV-2-1) was extracted immediately after preparation and at 1-minute intervals. The extracted portions were heated at 100° C. for 2 minutes to stop the enzyme reaction, and centrifuged using a centrifuge (4° C., 12,000×g, 10 min) to precipitate impurities. The supernatant (80 μL) was analyzed by HPLC, and the peak areas of uridine triphosphate were recorded.
A Hanes-Woolf plot was constructed using the calculated initial enzyme reaction velocity v, with the horizontal axis (x-axis) plotting each substrate concentration [S], and the vertical axis (y-axis) plotting the […] of the initial enzyme reaction velocity at each substrate concentration. […]

O=c1ccn([C@@H]2O[C@H](COP(=O)(O)OP(=O)(O)O)[C@@H](O)[C@H]2O)c(=O)[nH]1 [uridine diphosphate]
Km: 710 µM
